Source: US10174053B2, “2 substituted cephem compounds” (Glaxo Group Limited, priority 2012, dated 2019)
Values after ≈ are worked out from the molar mass of the structure shown. Where two headings read alike, the source gives them in different places.

Experiments:
Assay in all cases: In vitro antimicrobial activity, MIC by broth microdilution (CLSI)
Assay type in all cases: cell-based
A. baumannii JMI2346 = conditions: for MIC: Acinetobacter baumannii
Method in brief: (§1)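 MIC (μg/mL) by CLSI broth microdilution, inoculum 5×10^5 cfu/mL, in cation-adjusted Iso-Sensitest broth containing human apo-transferrin.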

A. baumannii JMI7 = conditions: for MIC: Acinetobacter baumannii
Method in brief: as §1

E. Coli JMI1890 = conditions: for MIC: Escherichia coli, read-out: Minimum Inhibitory Concentration (MIC) E. Coli JMI:1890
Method in brief: as §1

K. pneumoniae SR01358 = conditions: for MIC: Klebsiella pneumoniae
Method in brief: as §1

[1] = JMI2346, OXA-51, TEM, ESBL and OXA-type carbapenemase producing strain, 5×10^5 cfu/mL, cation-adjusted Iso-Sensitest broth containing human Apo-transferrin, read-out: Minimum Inhibitory Concentration (MIC) A. baumannii JMI:2346
[2] = JMI7, PER-1, OXA-23, 51, ESBL and OXA-type carbapenemase producing strain, 5×10^5 cfu/mL, cation-adjusted Iso-Sensitest broth containing human Apo-transferrin, read-out: Minimum Inhibitory Concentration (MIC) A. baumannii JMI:7
[3] = PER-1, TEM-1, ESBL producing strain, 5×10^5 cfu/mL, cation-adjusted Iso-Sensitest broth containing human Apo-transferrin
[4] = SR01358, KPC-2, ESBL and KPC-type carbapenemase producing strain, 5×10^5 cfu/mL, cation-adjusted Iso-Sensitest broth containing human Apo-transferrin, read-out: Minimum Inhibitory Concentration (MIC) K. pneumoniae SR01358

| Compound | MIC (A. baumannii JMI2346; [1]) | MIC (A. baumannii JMI7; [2]) | MIC (E. Coli JMI1890; [3]) | MIC (K. pneumoniae SR01358; [4]) | other results |
| --- | --- | --- | --- | --- | --- |
| C[C@@H]1S[C@@H]2[C@H](NC(=O)/C(=N\OC(C)(C)C(=O)[O-])c3csc(N)n3)C(=O)N2C(C(=O)[O-])=C1C[N+]12CCC(CC1)N(C(=O)c1ccc(O)c(O)c1Cl)CC2.[Na+] [Compound I-62] | 2 µg/mL | 0.5 µg/mL | 0.063 µg/mL | ≤ 0.031 µg/mL |  |
| C[C@@H]1S[C@@H]2[C@H](NC(=O)/C(=N\OC(C)(C)C(=O)[O-])c3csc(N)n3)C(=O)N2C(C(=O)[O-])=C1C[N+]12CCC(Cn3[nH]c(=O)c4cc(O)c(O)cc4c3=O)(CC1)C2.[Na+] [Compound I-180] | 1 µg/mL | 0.5 µg/mL | ≤ 0.031 µg/mL | ≤ 0.031 µg/mL |  |
| C[C@@H]1S[C@@H]2[C@H](NC(=O)/C(=N\OC(C)(C)C(=O)[O-])c3csc(N)n3)C(=O)N2C(C(=O)O)=C1C[N+]1(CCNC(=O)c2cn(C3CC3)c3cc(O)c(O)c(Cl)c3c2=O)CCCC1 [Compound I-90] | 8 µg/mL (≈ 9.16 µM) | 0.5 µg/mL (≈ 0.572 µM) | 1 µg/mL (≈ 1.14 µM) | ≤ 0.031 µg/mL |  |
| CO/N=C(\C(=O)NCC12CC[N+](CC3=C(COO)N4C(=O)[C@@H](NC(=O)/C(=N\OC(C)(C)C(=O)[O-])c5csc(N)n5)[C@H]4S[C@H]3C)(CC1)CC2)c1cc(O)c(O)c(Cl)c1 [Compound I-131] |  |  |  |  | Minimum Inhibitory Concentration (MIC) A. baumannii JMI:2346 (A. baumannii JMI2346; OXA-51, TEM, ESBL and OXA-type carbapenemase producing strain, 5×10^5 cfu/mL, cation-adjusted Iso-Sensitest broth containing human Apo-transferrin): 2 µg/mL; Minimum Inhibitory Concentration (MIC) A. baumannii JMI:7 (A. baumannii JMI7; PER-1, OXA-23, 51, ESBL and OXA-type carbapenemase producing strain, 5×10^5 cfu/mL, cation-adjusted Iso-Sensitest broth containing human Apo-transferrin): 2 µg/mL; Minimum Inhibitory Concentration (MIC) E. Coli JMI:1890 (E. Coli JMI1890; [3]): 0.125 µg/mL; Minimum Inhibitory Concentration (MIC) K. pneumoniae SR01358 (K. pneumoniae SR01358; KPC-2, ESBL and KPC-type carbapenemase producing strain, 5×10^5 cfu/mL, cation-adjusted Iso-Sensitest broth containing human Apo-transferrin): 0.063 µg/mL |
| C[C@@H]1S[C@@H]2[C@H](NC(=O)/C(=N\OC(C)(C)C(=O)[O-])c3csc(N)n3)C(=O)N2C(C(=O)[O-])=C1C[N+]12CCC(CN3C(=O)c4cc(O)c(O)cc4C3=O)(CC1)CC2.[Na+] [Compound I-73] | 2 µg/mL | 0.25 µg/mL | 0.063 µg/mL | ≤ 0.031 µg/mL |  |
| C[C@@H]1S[C@@H]2[C@H](NC(=O)/C(=N\OC(C)(C)C(=O)[O-])c3csc(N)n3)C(=O)N2C(C(=O)O)=C1C[N@+]12CCC[C@H]1CN(C(=O)c1ccc(O)c(O)c1Cl)CC2 [Compound I-41] | 4 µg/mL (≈ 5.14 µM) | 1 µg/mL (≈ 1.28 µM) | 1 µg/mL (≈ 1.28 µM) | 0.063 µg/mL (≈ 0.0809 µM) |  |
| C[C@@H]1S[C@@H]2[C@H](NC(=O)/C(=N\OC(C)(C)C(=O)[O-])c3csc(N)n3)C(=O)N2C(C(=O)[O-])=C1C[N+]12CCC(CNC(=O)c3cc(O)c(O)c(Cl)c3)(CC1)CC2.[Na+] [Compound I-60] | 4 µg/mL | 1 µg/mL | 1 µg/mL | ≤ 0.031 µg/mL |  |
| C[C@@H]1S[C@@H]2[C@H](NC(=O)/C(=N\OC(C)(C)C(=O)[O-])c3csc(N)n3)C(=O)N2C(C(=O)O)=C1C[N@+]1(C)[C@@H]2CC[C@H]1C[C@@H](N1C(=O)c3ccc(O)c(O)c3C1=O)C2 [Compound I-38] |  |  |  |  | MIC (A. baumannii JMI2346; JMI2346, read-out: Minimum Inhibitory Concentration (MIC) A. baumannii JMI:2346): 0.5 µg/mL (≈ 0.638 µM); MIC (A. baumannii JMI7; JMI7, read-out: Minimum Inhibitory Concentration (MIC) A. baumannii JMI:7): 0.25 µg/mL (≈ 0.319 µM); MIC (E. Coli JMI1890): 0.25 µg/mL (≈ 0.319 µM); MIC (K. pneumoniae SR01358; SR01358, read-out: Minimum Inhibitory Concentration (MIC) K. pneumoniae SR01358): 0.063 µg/mL (≈ 0.0804 µM) |
| C[C@@H]1S[C@@H]2[C@H](NC(=O)/C(=N\OC(C)(C)C(=O)[O-])c3csc(N)n3)C(=O)N2C(C(=O)[O-])=C1C[N+]12CCC[C@H]1CN(C(=O)C(=O)c1cc(O)c(O)c(F)c1)CC2.[Na+] (some centres unmarked) [Compound I-85] | 8 µg/mL | 2 µg/mL | 0.5 µg/mL | 0.25 µg/mL |  |
| C[C@@H]1S[C@@H]2[C@H](NC(=O)/C(=N\OC(C)(C)C(=O)[O-])c3csc(N)n3)C(=O)N2C(C(=O)O)=C1C[N+]12CCC(CNC(=O)/C(=N\O)c3ccc(O)c(O)c3)(CC1)CC2 [Compound I-92] | 16 µg/mL (≈ 20 µM) | 4 µg/mL (≈ 4.99 µM) | 2 µg/mL (≈ 2.5 µM) | 0.125 µg/mL (≈ 0.156 µM) |  |
| C[C@@H]1S[C@@H]2[C@H](NC(=O)/C(=N\OC(C)(C)C(=O)[O-])c3csc(N)n3)C(=O)N2C(C(=O)O)=C1C[N+]1(CCN2C(=O)c3ccc(O)c(O)c3C2=O)CCCCC1 [Compound I-42] | 2 µg/mL (≈ 2.59 µM) | 0.5 µg/mL (≈ 0.648 µM) | 0.5 µg/mL (≈ 0.648 µM) | 0.063 µg/mL (≈ 0.0816 µM) |  |
